The values below come from patent publication US5432175A, “Pyridine and pyridine N-oxide derivatives of diaryl methyl piperidines or piperazines, and compositions and methods of use thereof” (Schering Corporation, priority 1993, dated 1995).

In general, IC50 refers to the midpoint of a concentration-inhibition curve. A low value points to higher potency. The inhibition in vivo is the relative decrease from the control value, in per cent.

The test system of test [1] is PAF-induced platelet aggregation. Briefly: Platelet Aggregation Assay (in vitro PAF antagonism, human platelet-rich plasma). In kind it is cell-based. Conditions: 37° C., PAF 1-5×10^-8 M. How it is done:
Platelet Aggregation Assay
Platelet-activating factor (PAF) causes aggregation of platelets by a receptor-mediated mechanism. Therefore, PAF-induced platelet aggregation provides a simple and convenient assay to screen compounds for PAF antagonism.
Blood was centrifuged at 110×g for 15 min. and the supernatant platelet-rich plasma (PRP) carefully transferred into a polypropylene tube. Platelet-poor-plasma (PPP) was prepared by centrifuging PRP at 12,000×g for 2 min. PRP was used within 3 hr. of drawing the blood.
PAF was dissolved in chloroform:methanol (1:1, v/v) at a concentration of 2 mg/ml and stored at -70° C. An aliquot of this solution was transferred to a polypropylene tube and dried under a flow of nitrogen gas. […] The solution was sonicated for 5 min. This stock solution was further diluted to appropriate concentrations in Hepes-saline-BSA buffer. Collagen and adenosine diphosphate (ADP) were purchased as solutions. Test compounds were initially dissolved in dimethyl sulfoxide (DMSO) at a concentration of 50 mM and then further diluted in Hepes-saline-BSA buffer to achieve appropriate concentrations.
When an aggregating agent such as PAF is added to PRP, platelets aggregate. An aggregometer quantifies this aggregation by measuring and comparing light (infra-red) transmission through PPP and PRP. Aggregation assays were performed using a dual-channel aggregometer. PRP (0.45 ml) in aggregometer cuvettes was continually stirred (37° C.). Solutions (50 μL) of test compounds or vehicle were added to the PRP and, after incubation for 2 min., 10-15 μl aliquots of PAF solution were added to achieve a final concentration of 1-5×10^-8 M. In different experiments the aggregatory response was kept within a set limit by varying the concentration of PAF. Incubations were continued until the increase in light transmission reached a maximum (usually 2 min.). This increase in light transmission reflecting platelet aggregation is transmitted to a computer. The computer calculates the slope of transmission change, thus providing the rate of aggregation. Values for inhibition were calculated by comparing rates of aggregation obtained in the absence and the presence of the compound. For each experiment, a standard PAF antagonist such as 8-chloro-6,11-dihydro-11 -(1-acetyl-4-piperidylidene)-5H-benzo[5,6]cyclohepta[1,2-b]pyridine was used as a positive control. […]

The test system of the next test is PAF-induced bronchospasm. Briefly: PAF-induced bronchospasm in guinea pigs (in vivo). Details: species or system guinea pig (male Hartley). Conditions: Cavia porcellus, read-out: Agonist Bronchospasm (in vivo) PAF % Inhibition; for inhibition in vivo at 3 mg/kg: oral, PAF 0.4 μg/kg i.v. How it is done: (§1) B. In Vivo Studies: Agonist-Induced Responses
(§2) Spasmogen-Induced Bronchospasm in Guinea Pigs
(§3) Male Hartley guinea pigs (450-550 g) were obtained from Charles River Breeding Laboratories. The animals were fasted overnight and the following day were anesthetized with 0.9 ml/kg i.p. of dilaurethane (containing 0.1 g/ml diallylbarbituric acid, 0.4 g/ml ethylurea and 0.4 g/ml urethane). The left jugular vein was cannulated for the administration of compounds. The trachea was cannulated and the animals were ventilated by a rodent respirator at 55 strokes/min. with a stroke volume of 4 ml. A side arm to the tracheal cannula was connected to a pressure transducer to obtain a continuous measure of inflation pressure. Bronchoconstriction was measured as the percent increase in inflation pressure that peaked within 5 min. after challenge with spasmogen. […] Each animal was challenged with only a single spasmogen. The effect of a compound on the bronchospasm is expressed as a percent inhibition of the increase in inflation pressure compared to the increase in a control group. […] The first two compounds in TABLE II are known compounds and are included for comparison purposes.

Test [2] concerns histamine-induced bronchospasm. The test is described as follows: Histamine-induced bronchospasm in guinea pigs (in vivo). Further details: species or system guinea pig (male Hartley). The following applies: oral, histamine 10 ug/kg i.v. How it is done:
as §1, §2, §3

With `O=C(c1cc[n+]([O-])cc1)N1CCC(=C(c2ccc(Cl)cc2)c2ccccn2)CC1`, half-maximal inhibition in test [1] (IC50) was put at 500 nM. In addition, the inhibition in vivo at 3 mg/kg with PAF-induced bronchospasm was 100%. Further, the “Agonist Bronchospasm (in vivo) Histamine % Inhibition” value in test [2] (dose 3 mg/kg) worked out at 0%.
In the same order, the values of `O=C(c1cc[n+]([O-])cc1)N1CCC(=C(c2ccccc2)c2ccccc2)CC1` are 3000 nM, 44% and 0%.
Molecule `O=C(c1cc[n+]([O-])cc1)N1CCN(C(c2ccccc2)c2ccc(Cl)cc2)CC1` (centres unmarked) gave an IC50 in test [1] of 1000 nM. In addition, the inhibition in vivo at 3 mg/kg in the test with PAF-induced bronchospasm is 99%. The “Agonist Bronchospasm (in vivo) Histamine % Inhibition” value in test [2] (dose 3 mg/kg) is 30%.
In the same order, the values of `[O-][n+]1ccc(CN2CCC(=C(c3ccc(Cl)cc3)c3ccccn3)CC2)cc1` are 12000 nM, 18% and 95%.
In test [1], `O=C(c1cc[n+]([O-])cc1)N1CCN(C(c2ccc(Cl)cc2)c2cccs2)CC1` (centres unmarked) registered a concentration for half-maximal inhibition (IC50) of 200 nM. In the test with PAF-induced bronchospasm, the inhibition in vivo at 3 mg/kg worked out at 22%.
`O=C(c1cc[n+]([O-])cc1)N1CCN(C(c2ccc(Cl)cc2)c2nccs2)CC1` (centres unmarked): the IC50 in test [1] worked out at 1000 nM. Also, the inhibition in vivo at 3 mg/kg in the test with PAF-induced bronchospasm turned out to be 73%. Moreover, in test [2] (dose 10 mg/kg), the “Agonist Bronchospasm (in vivo) Histamine % Inhibition” value came to 25%.
Regarding `Cn1ccnc1C(=C1CCN(C(=O)c2cc[n+]([O-])cc2)CC1)c1ccc(Cl)cc1`, the midpoint of inhibition in test [1], the IC50, lay at 2000 nM.
With `Cn1ccnc1C(=C1CCN(Cc2cc[n+]([O-])cc2)CC1)c1ccc(Cl)cc1`, half-maximal inhibition in test [1] (IC50) required 20000 nM.
As to `[O-][n+]1ccc(CN2CCN(C(c3ccc(Cl)cc3)c3cccs3)CC2)cc1` (centres unmarked), it took 15000 nM to reach half-maximal inhibition in test [1] (IC50).
In test [1], `[O-][n+]1ccc(CN2CCN(C(c3ccc(Cl)cc3)c3nccs3)CC2)cc1` (centres unmarked) gave an IC50 of 12000 nM.
The same measure, in the same setting: next, `O=C(c1cc[n+]([O-])cc1)N1CCC(=C(c2ccc(Cl)cc2)c2cccs2)CC1`: 500 nM.
Same read-out and setting: next, `[O-][n+]1ccc(CN2CCC(=C(c3ccc(Cl)cc3)c3nccs3)CC2)cc1`: 35000 nM; `O=C(c1cc[n+]([O-])cc1)N1CCC(=C(c2ccc(Cl)cc2)c2nccs2)CC1`: 1000 nM.
Turning to `CCOC(=O)N1CCC(=C2c3ccc(Cl)cc3CCc3cccnc32)CC1` [reference compound], the inhibition in vivo at 10 mg/kg in the test on PAF-induced bronchospasm (po) was under 50%. Moreover, the “Agonist Bronchospasm (in vivo) Histamine % Inhibition” value in test [2] (dose 1 mg/kg) is recorded as over 50%.
In test [1], `CC(=O)N1CCC(=C2c3ccc(Cl)cc3CCc3cccnc32)CC1` [reference compound] gave an IC50 of 610 nM. The inhibition in vivo at 3 mg/kg in the test on PAF-induced bronchospasm was found to be 4%. In test [2] (dose 3 mg/kg), the “Agonist Bronchospasm (in vivo) Histamine % Inhibition” value was found to be 48%.
